Data as given in ChEMBL document CHEMBL5303711, “ECBD screening data for assay EOS300108” (2023).
Calls of active or inactive are those of the source. The rule behind the calls is not given here.

assay: Cytotoxicity activity against human HepG2 cells assessed by CellTiter-Glo luminescent cell viability assay.; type: toxicity, cell-based; parameters: assay stage confirmatory assay, source tissue liver; conditions: HepG2 cells, read-out: IC50 relative

Structure (SMILES) | CC50
COc1cc(/C=C/C(=O)CC(=O)/C=C/c2ccc(O)cc2)ccc1O | 11.5 µM (active)
CN(C)CCNC(=O)NC[C@H]1CC[C@@H]2[C@H](O1)c1cc(C(F)(F)F)ccc1N[C@H]2c1ccccc1 | 3.5 µM (active)
CCCCCCCCC(=O)N[C@H](CN1CCCC1)[C@H](O)c1ccc2c(c1)OCCO2 | 5.1 µM (active)
Cn1nc(-c2ccc(C(F)(F)F)cc2)nc2c(=O)n(C)c(=O)nc1-2 | 1.1 µM (active)
COc1ccc([N+](=O)[O-])c(S(=O)(=O)c2ccc(Cl)cc2)n1 | 2.2 µM (active)
C[n+]1ccc(/C=C/c2c[nH]c3ccccc23)cc1 | 1.2 µM (active)
O=C1Nc2ccccc2/C1=C1\Nc2ccccc2\C1=N/O | 14.6 µM (inactive)
CCN(Cc1cc(Nc2nc(C)cn3c(-c4cn[nH]c4)cnc23)sn1)C(C)(C)CO | 1.8 µM (active)
COc1cc(N2CCN(C)CC2)ccc1Nc1ncc2c(n1)N(C)c1ccccc1C(=O)N2 | 7.5 µM (active)
CN1CCC(c2cc(-c3ccncc3)c(-c3ccc(F)cc3)[nH]2)CC1 | 9.2 µM (active)
COc1cc2c(Nc3ccc(NC(=O)c4ccccc4)cc3)ncnc2cc1OCCCN1CCOCC1 | 3.2 µM (active)
CC(C)NC(=O)[C@H]1CC[C@@H](n2/c(=N/C(=O)c3ccc(F)cc3)[nH]c3ccc(CN4CCC(C(C)(C)O)CC4)cc32)CC1 | 0.8 µM (active)
CC(=O)N1c2ccc(-c3ccc(C(=O)O)cc3)cc2[C@H](Nc2ccc(Cl)cc2)C[C@@H]1C | 0.9 µM (active)
CCNC(=O)Nc1ccc(-c2nc3c(c(N4CCOC[C@@H]4C)n2)CCN(c2ncccn2)C3)cc1 | 0.2 µM (active)
CC(C)c1ccc(-c2cc(=O)c3ccccc3o2)cc1 | 11.1 µM (active)
c1cc(NC2CCNCC2)nc(-c2cnc3ccccn23)c1 | 4.5 µM (active)
NC1(Cc2ccc(Cl)cc2)CCN(c2ncnc3[nH]ccc23)CC1 | 6.7 µM (active)
Nc1ccccc1NC(=O)CCCCCC(=O)Nc1ccccc1 | 11.7 µM (active)
COc1cc(C(N)=O)ccc1NC(=O)[C@@H]1N[C@@H](CC(C)(C)C)[C@@]2(C(=O)Nc3cc(Cl)ccc32)[C@H]1c1cccc(Cl)c1F | 5.3 µM (inactive)
O=C(CCN1CCN(C(=O)OCc2cc(Cl)cc(Cl)c2)CC1)c1ccc2[nH]c(=O)oc2c1 | 20.6 µM (inactive)

Structure (SMILES) | CC50
N#Cc1ccnc(Nc2cc(C3CCN(C4COC4)CC3)cc(N3CCC(F)(F)C3)n2)c1 | 1.9 µM (active)
CN(C)C/C=C/C(=O)Nc1cccc(C(=O)Nc2ccc(Nc3nccc(-c4cccnc4)n3)cc2)c1 | 1 µM (active)
O=C1c2ccccc2C(=O)c2oc(-c3ccccc3)nc21 | 2.6 µM (active)
CCNC(=O)c1[nH]nc(-c2cc(Cl)c(O)cc2O)c1-c1ccc(OC)cc1 | 1 µM (active)
COc1cccc2c(NCc3ccccc3)nc(-n3c(N)nc4ccccc43)nc12 | 9.6 µM (active)
N#Cc1cc2cc(CN3CCC(Nc4ncnc5sc(CC(F)(F)F)cc45)CC3)ccc2[nH]1 | 2.2 µM (active)
Nc1ncc(-c2ccnc(Nc3ccncc3)n2)c(CC2CC2)n1 | 7 µM (active)
Cc1c(-c2ccc(N3CCc4cccc(C(=O)Nc5nc6ccccc6s5)c4C3)nc2C(=O)O)cnn1CC12CC3CC(CC(C3)C1)C2 | 1 µM (active)
CC(C)c1c2cc(-c3ccnc(N[C@H]4CC[C@H](NC5CCOCC5)CC4)n3)ccc2nn1C | 0.1 µM (active)
CN(C)CCCOc1ccc(-c2ccc3ncc4c(c3c2)n(C2CCOCC2)c(=O)n4C)cn1 | 7.4 µM (active)
C=CC(=O)Nc1ccc(CN2C(=O)N(c3cc(OC)cc(OC)c3)Cc3cnc(Nc4ccc(N5CCN(C)CC5)cc4)nc32)cc1 | 3.7 µM (active)
Nc1nc(N)c2c(OCC3CCN(Cc4c(Cl)cccc4Cl)CC3)cccc2n1 | 4 µM (active)
CN1CCN(Cc2ccc(NC(=O)c3n[nH]cc3Nc3ncnc4[nH]ccc34)cc2)CC1 | 1.1 µM (active)
COc1nc(OCc2cccc(-c3ccccc3)c2C)ccc1CNCCNC(C)=O | 4 µM (active)
Cc1cc(N2C[C@@H](C)N[C@@H](C)C2)ncc1-c1ccc(-c2nc3c(ccn3C)c(=O)[nH]2)cc1 | 1.8 µM (active)
CN(C)C/C=C/C(=O)Nc1ccc(C(=O)N2CCC[C@@H](Nc3ncc(Cl)c(-c4c[nH]c5ccccc45)n3)C2)cc1 | 0.1 µM (active)
CC(C)(C)c1cc(NC(=O)Nc2ccc(Oc3ccnc4[nH]c(=O)cnc34)cc2F)n(-c2ccccc2)n1 | 0.4 µM (active)
N#Cc1ccc(O[C@@H]2c3ccccc3C[C@H]2N2CCC[C@@H](N)C2)c(Cl)c1 | 4.9 µM (active)
Cc1sc2c(c1C)C(c1ccc(Cl)cc1)=N[C@@H](CC(=O)NCCCCCCCCNC(=O)COc1cccc3c1C(=O)N(C1CCC(=O)NC1=O)C3=O)c1nnc(C)n1-2 (some centres undefined) | < 0.1 µM (active)
N[C@H]1CC[C@H](Nc2cc(-c3cccc(NCc4cccc(F)c4)n3)c(Cl)cn2)CC1 | 0.1 µM (active)

Structure (SMILES) | CC50
COc1ccc(-c2c[nH]c3nccc(-c4ccsc4)c23)c(OC)c1 | 7.9 µM (active)
COc1cc(N2CCN(C)CC2)ccc1Nc1ncc2c(n1)N(C1CCC1)C(=O)N(c1c(C)cccc1C)C2 | 3.3 µM (active)
CNc1nc(Nc2ccc(C(=O)N3CCOCC3)cc2OC)nc2[nH]cc(Cl)c12 | 5 µM (active)
COC(=O)[C@H](CC(C)C)NC(=O)c1ccc(NC[C@@H](N)CS)cc1-c1cccc2ccccc12 | 50 µM (inactive)
CN(c1ccccc1CNc1nc(Nc2ccc3c(c2)CC(=O)N3)ncc1C(F)(F)F)S(C)(=O)=O | 1 µM (active)
N#Cc1cnc2c(Cl)cc(NCc3cn(CCN4CCCCCC4)nn3)cc2c1Nc1ccc(F)c(Cl)c1 | 11.6 µM (active)
O=[N+]([O-])c1ccc(Sc2cccc[n+]2[O-])c2nonc12 | 0.6 µM (active)
COc1ccc2c(c1)CN(C)CC2c1ccc(Cl)c(Cl)c1 (centres undefined) | 12.6 µM (active)
CN1CCN([C@H]2CC[C@H](n3cc(-c4ccc(Oc5ccccc5)cc4)c4c(N)ncnc43)CC2)CC1 | 1.6 µM (active)
CC(=O)c1cnc2ccc(-c3cc(Cl)c(O)c(Cl)c3)nc2c1N[C@H]1CC[C@H](CN(C)C)CC1 | 0.1 µM (active)
N#Cc1c(C2CCNCC2)cc(-c2c(O)cccc2OCC2CC2)nc1N | 5.6 µM (active)
C=CCNc1c(O)cc2c(O)c1C[C@@H](C)C[C@H](OC)[C@H](O)[C@@H](C)/C=C(/C)[C@H](OC(N)=O)[C@@H](OC)/C=C\C=C(\C)C(=O)N2 | 0.1 µM (active)
COc1cc2nc(-c3cc(F)ccc3O)nc(N[C@@H]3CNC[C@H]3C(C)(C)O)c2cc1OC | 1.6 µM (active)
C[C@]12CC/C(=N\OCCN)C[C@@H]1C(=O)C[C@@H]1[C@@H]2CC[C@]2(C)C(=O)CC[C@@H]12 | 10.5 µM (active)
CCCOc1cc(OCCCCN(C)C)cc(Oc2cc3c(cc2NS(=O)(=O)c2ccc(OC)c(OC)c2)n(C)c(=O)n3C)c1 | 7.8 µM (active)
Cc1cc(-c2cc(O)ccc2Cl)cc2nnc(Nc3ccc(OCCN4CCCC4)cc3)nc12 | 1.4 µM (active)
CO[C@H]1/C=C\C=C(\C)C(=O)NC2=CC(=O)C(NCCN(C)C)=C(C[C@@H](C)C[C@H](OC)[C@H](O)[C@@H](C)/C=C(/C)[C@@H]1OC(N)=O)C2=O | < 0.1 µM (active)
Cc1nc2c(=O)n(C)c(=O)nc-2n(C)n1 | 0.7 µM (active)
CN(C)Cc1ccc(-c2nc3cccc4c3n2CCNC4=O)cc1 | 10.9 µM (active)
